Source: PubChem BioAssay (NCI)
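Results reflect a 48-hour exposure of cells in 96-well plates to compound at five concentrations. GI50: concentration for 50% inhibition of growth. TGI denotes the concentration required for complete inhibition of growth.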

Tests used:
Experiment in all cases: growth of human tumour cells (NCI), 48 h
786-0 renal = test system: 786-0 renal
A498 renal = test system: A498 renal
A549 NSCLC = test system: A549 NSCLC
ACHN renal = test system: ACHN renal
BT-549 breast = test system: BT-549 breast
CAKI-1 renal = test system: CAKI-1 renal
CCRF-CEM leukemia = test system: CCRF-CEM leukemia
COLO 205 colon = test system: COLO 205 colon
DU-145 prostate = test system: DU-145 prostate
EKVX NSCLC = test system: EKVX NSCLC
HCC-2998 colon = test system: HCC-2998 colon
HCT-116 colon = test system: HCT-116 colon
HCT-15 colon = test system: HCT-15 colon
HOP-62 NSCLC = test system: HOP-62 NSCLC
HOP-92 NSCLC = test system: HOP-92 NSCLC
HS 578T breast = test system: HS 578T breast
HT29 colon = test system: HT29 colon
IGROV1 ovarian = test system: IGROV1 ovarian
KM12 colon = test system: KM12 colon
LOX IMVI melanoma = test system: LOX IMVI melanoma
M14 melanoma = test system: M14 melanoma
MALME-3M melanoma = test system: MALME-3M melanoma
MCF7 breast = test system: MCF7 breast
MDA-MB-231 breast = test system: MDA-MB-231 breast
MDA-MB-435 = test system: MDA-MB-435
NCI-H226 lung = test system: NCI-H226 lung
NCI-H23 lung = test system: NCI-H23 lung
NCI-H460 lung = test system: NCI-H460 lung
NCI-H522 lung = test system: NCI-H522 lung
NCI/ADR-RES ovarian = test system: NCI/ADR-RES ovarian
OVCAR-3 ovarian = test system: OVCAR-3 ovarian
OVCAR-4 ovarian = test system: OVCAR-4 ovarian
OVCAR-5 ovarian = test system: OVCAR-5 ovarian
OVCAR-8 ovarian = test system: OVCAR-8 ovarian
PC-3 prostate = test system: PC-3 prostate
RPMI-8226 leukemia = test system: RPMI-8226 leukemia
RXF 393 renal = test system: RXF 393 renal
SF-268 CNS = test system: SF-268 CNS
SF-295 CNS = test system: SF-295 CNS
SF-539 CNS = test system: SF-539 CNS
SK-MEL-2 melanoma = test system: SK-MEL-2 melanoma
SK-MEL-28 melanoma = test system: SK-MEL-28 melanoma
SK-MEL-5 melanoma = test system: SK-MEL-5 melanoma
SK-OV-3 ovarian = test system: SK-OV-3 ovarian
SN12C renal = test system: SN12C renal
SNB-19 CNS = test system: SNB-19 CNS
SNB-75 CNS = test system: SNB-75 CNS
SW-620 colon = test system: SW-620 colon
T-47D breast = test system: T-47D breast
TK-10 renal = test system: TK-10 renal
U251 CNS = test system: U251 CNS
UACC-257 melanoma = test system: UACC-257 melanoma
UACC-62 melanoma = test system: UACC-62 melanoma
UO-31 renal = test system: UO-31 renal

`COc1ccc(-c2c(Nc3ccccn3)nc3c(C4=CCCCC4)c(-c4ccccc4)[nH]n3c2=O)cc1` gave a GI50 (786-0 renal) of 2.63 µM, a TGI (786-0 renal) of 16.3 µM and a GI50 (A498 renal) of 2.01 µM. For the same compound, the TGI (A498 renal) was 15.4 µM, the GI50 (A549 NSCLC) was 1.94 µM and the TGI (A549 NSCLC) was greater than 100 µM. It also gave a GI50 (ACHN renal) of 2 µM, a TGI (ACHN renal) of 24.9 µM and a GI50 (BT-549 breast) of 1.88 µM. For the same compound, the TGI (BT-549 breast) was 17.6 µM, the GI50 (CAKI-1 renal) was 2.48 µM and the TGI (CAKI-1 renal) was 15.1 µM. It also gave a GI50 (CCRF-CEM leukemia) of 1.22 µM, a TGI (CCRF-CEM leukemia) of 6.58 µM and a GI50 (COLO 205 colon) of 2.34 µM. The TGI (COLO 205 colon) was greater than 100 µM, the GI50 (DU-145 prostate) was 3.62 µM and the TGI (DU-145 prostate) was greater than 100 µM. It also gave a GI50 (EKVX NSCLC) of 2.97 µM, a TGI (EKVX NSCLC) of 36.9 µM and a GI50 (HCC-2998 colon) of 3.7 µM. It also gave a TGI (HCC-2998 colon) greater than 100 µM, a GI50 (HCT-116 colon) of 1.32 µM and a TGI (HCT-116 colon) of 11.8 µM. For the same compound, the GI50 (HCT-15 colon) was 1.64 µM, the TGI (HCT-15 colon) was greater than 100 µM and the GI50 (HOP-62 NSCLC) was 3.73 µM. It also gave a TGI (HOP-62 NSCLC) of 22.9 µM, a GI50 (HOP-92 NSCLC) of 1.45 µM and a TGI (HOP-92 NSCLC) of 9.26 µM. For the same compound, the GI50 (HS 578T breast) was 3.32 µM, the TGI (HS 578T breast) was 33.1 µM and the GI50 (HT29 colon) was 2.62 µM. For the same compound, the TGI (HT29 colon) was greater than 100 µM, the GI50 (IGROV1 ovarian) was 3.5 µM and the TGI (IGROV1 ovarian) was 51.4 µM. For the same compound, the GI50 (KM12 colon) was 3.7 µM, the TGI (KM12 colon) was greater than 100 µM and the GI50 (LOX IMVI melanoma) was 1.8 µM. It also gave a TGI (LOX IMVI melanoma) greater than 100 µM, a GI50 (M14 melanoma) of 1.23 µM and a TGI (M14 melanoma) greater than 100 µM. It also gave a GI50 (MALME-3M melanoma) of 3.93 µM, a TGI (MALME-3M melanoma) of 60.2 µM and a GI50 (MCF7 breast) of 1.81 µM. The TGI (MCF7 breast) was 15.5 µM, the GI50 (MDA-MB-231 breast) was 2.73 µM and the TGI (MDA-MB-231 breast) was 16.5 µM. For the same compound, the GI50 (MDA-MB-435) was 2.71 µM, the TGI (MDA-MB-435) was greater than 100 µM and the GI50 (NCI-H226 lung) was 2.78 µM. The TGI (NCI-H226 lung) was 17.8 µM, the GI50 (NCI-H23 lung) was 4.17 µM and the TGI (NCI-H23 lung) was 24.1 µM. It also gave a GI50 (NCI-H460 lung) of 0.645 µM, a TGI (NCI-H460 lung) of 14 µM and a GI50 (NCI-H522 lung) of 3.55 µM. For the same compound, the TGI (NCI-H522 lung) was 23.9 µM, the GI50 (NCI/ADR-RES ovarian) was 2.57 µM and the TGI (NCI/ADR-RES ovarian) was greater than 100 µM. It also gave a GI50 (OVCAR-3 ovarian) of 1.94 µM, a TGI (OVCAR-3 ovarian) greater than 100 µM and a GI50 (OVCAR-4 ovarian) of 2.31 µM. For the same compound, the TGI (OVCAR-4 ovarian) was greater than 100 µM, the GI50 (OVCAR-5 ovarian) was 5.52 µM and the TGI (OVCAR-5 ovarian) was greater than 100 µM. It also gave a GI50 (OVCAR-8 ovarian) of 3.47 µM, a TGI (OVCAR-8 ovarian) greater than 100 µM and a GI50 (PC-3 prostate) of 2.17 µM. It also gave a TGI (PC-3 prostate) greater than 100 µM, a GI50 (RPMI-8226 leukemia) of 1.43 µM and a TGI (RPMI-8226 leukemia) of 5.66 µM. For the same compound, the GI50 (RXF 393 renal) was 2.55 µM, the TGI (RXF 393 renal) was 11.6 µM and the GI50 (SF-268 CNS) was 2.64 µM. It also gave a TGI (SF-268 CNS) of 42.4 µM, a GI50 (SF-295 CNS) of 2.48 µM and a TGI (SF-295 CNS) of 14 µM. For the same compound, the GI50 (SF-539 CNS) was 2.81 µM, the TGI (SF-539 CNS) was 18.6 µM and the GI50 (SK-MEL-2 melanoma) was 2.21 µM. For the same compound, the TGI (SK-MEL-2 melanoma) was 9.54 µM, the GI50 (SK-MEL-28 melanoma) was 4.55 µM and the TGI (SK-MEL-28 melanoma) was greater than 100 µM. The GI50 (SK-MEL-5 melanoma) was 2.67 µM, the TGI (SK-MEL-5 melanoma) was greater than 100 µM and the GI50 (SK-OV-3 ovarian) was 3.44 µM. For the same compound, the TGI (SK-OV-3 ovarian) was 17.5 µM, the GI50 (SN12C renal) was 2.7 µM and the TGI (SN12C renal) was greater than 100 µM. It also gave a GI50 (SNB-19 CNS) of 3.12 µM, a TGI (SNB-19 CNS) of 17.2 µM and a GI50 (SNB-75 CNS) of 2.99 µM. The TGI (SNB-75 CNS) was 21.6 µM, the GI50 (SW-620 colon) was 3.07 µM and the TGI (SW-620 colon) was greater than 100 µM. The GI50 (T-47D breast) was 2.22 µM, the TGI (T-47D breast) was 17.3 µM and the GI50 (TK-10 renal) was 4.82 µM. The TGI (TK-10 renal) was 19.1 µM, the GI50 (U251 CNS) was 1.95 µM and the TGI (U251 CNS) was 17.9 µM. The GI50 (UACC-257 melanoma) was 5 µM, the TGI (UACC-257 melanoma) was 66.3 µM and the GI50 (UACC-62 melanoma) was 2.2 µM. For the same compound, the TGI (UACC-62 melanoma) was 16.2 µM, the GI50 (UO-31 renal) was 2.19 µM and the TGI (UO-31 renal) was greater than 100 µM.
